BindingDB's records for doi:10.1016/j.chembiol.2010.07.018 (University of Dundee, 2010)
pIC50: −log10 of the molar value. Starred links: 1 amine or outer side, 2 acyl side, 3 side chain; linkers in the order of their positions; H or OH if unused. Non-standard residues stand in square brackets, D forms with d. Residues, ends and D or L forms follow the SMILES beside them. Groups on a side chain read outwards from the residue. βAsp = O=C(O)[C@H](CC(=O)[*:2])N[*:1]; NMeF = CN[C@@H](Cc1ccccc1)C(=O)O; CO = O=C([*:1])[*:2]

Target: T1, Endochitinase A1 (Aspergillus fumigatus, UniProt Q873Y0)
T1 sequence (Q873Y0 whole entry): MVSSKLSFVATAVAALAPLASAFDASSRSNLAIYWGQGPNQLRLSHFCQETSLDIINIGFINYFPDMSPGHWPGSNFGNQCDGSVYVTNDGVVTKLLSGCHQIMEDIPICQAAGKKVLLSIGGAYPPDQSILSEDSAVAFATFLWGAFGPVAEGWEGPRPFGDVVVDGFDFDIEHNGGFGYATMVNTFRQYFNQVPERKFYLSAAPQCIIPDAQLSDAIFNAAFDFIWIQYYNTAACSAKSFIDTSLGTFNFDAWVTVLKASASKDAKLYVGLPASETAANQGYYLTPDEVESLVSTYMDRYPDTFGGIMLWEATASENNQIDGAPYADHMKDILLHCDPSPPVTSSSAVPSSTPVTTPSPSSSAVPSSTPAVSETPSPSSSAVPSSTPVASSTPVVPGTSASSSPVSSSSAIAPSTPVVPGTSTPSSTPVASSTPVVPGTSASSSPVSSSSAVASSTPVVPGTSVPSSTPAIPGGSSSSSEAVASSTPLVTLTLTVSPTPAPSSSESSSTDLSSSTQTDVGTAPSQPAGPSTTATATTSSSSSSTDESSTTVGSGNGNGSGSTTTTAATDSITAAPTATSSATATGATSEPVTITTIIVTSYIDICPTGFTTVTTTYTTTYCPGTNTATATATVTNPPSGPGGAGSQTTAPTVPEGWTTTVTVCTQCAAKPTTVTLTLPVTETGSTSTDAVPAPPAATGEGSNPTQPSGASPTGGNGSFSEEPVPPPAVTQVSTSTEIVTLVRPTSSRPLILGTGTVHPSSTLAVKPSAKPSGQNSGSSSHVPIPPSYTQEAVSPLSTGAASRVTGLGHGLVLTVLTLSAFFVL
Assay: Enzyme Inhibition Assay
Settings: pH 5.5; 37 °C

**Q.** How did the pIC50 turn out when CNC(=O)NC(=N)NCCC[C@@H]1NC(=O)[C@@H](C)NC(=O)C[C@@H](C(=O)O)NC(=O)C[C@@H](C(=O)O)NC(=O)[C@H](Cc2ccccc2)N(C)C1=O [(2R,5S,8S,11S,15S)-8-benzyl-2,7-dimethyl-5-[3-({[(methylcarbamoyl)amino]methanimidoyl}amino)propyl]-3,6,9,13,17-pentaoxo-1,4,7,10,14-pentaazacycloheptadecane-11,15-dicarboxylic acid] (cyclo([NMeF][βAsp][βAsp][dA]R([CO-NHMe]))) was run?
**A.** < 2.42

**Q.** With [H]/N=C(\NC)NC(=O)NC [Argifin-Derived Fragments, 1] as the molecule, how does the pIC50 read?
**A.** 4.10

**Q.** CCN=C(N)NC(=O)NC [Argifin-Derived Fragments, 2] was tested. Which pIC50 did it give?
**A.** 3.51

**Q.** How did the pIC50 turn out when CCCN=C(N)NC(=O)NC [Argifin-Derived Fragments, 3] was run?
**A.** 4.21

**Q.** CCCCNC(=N)NC(=O)NC [Argifin-Derived Fragments, 4] was tested. Which pIC50 did it give?
**A.** 4.42

**Q.** With CNC(=O)NC(=N)NC1CCCCC1 [Argifin-Derived Fragments, 5] as the molecule, how does the pIC50 read?
**A.** 4.38

**Q.** How did the pIC50 turn out when CNC(=O)NC(N)=Nc1ccccc1 [Argifin-Derived Fragments, 6] was run?
**A.** 3.95

**Q.** With CNC(=O)NC(N)=NCc1ccccc1 [Argifin-Derived Fragments, 7] as the molecule, how does the pIC50 read?
**A.** 3.52
